From patent US11337423B1, “Candida auris disinfectant” (priority 2021, dated 2022)

Experiments:
Experiment in all cases: zone of inhibition in vitro test
Format in all cases: cell-based
[1] = system: Salmonella enterica ATCC 14028
MRSE ATCC 51625 = system: MRSE ATCC 51625
[2] = system: Escerichia coli ATCC 43895
[3] = system: Klebsiella pneumoniae ATCC 4352
[4] = system: Staphylococcus aureus ATCC 6538
[5] = system: Pseudomonas aeruqinosa ATCC 9-27
[6] = system: Methicillin Resistant Staphylococcus aureus ATCC 33591
Candida auris CDC B11903 = system: Candida auris CDC B11903
[7] = system: Lactobacillus casei ATCC 393
[8] = system: Clostridium perfrinqens ATCC 13124
[9] = system: Staphyloccus epidermidis ATCC 12228
[10] = system: Escherichia coli ATCC 8739
Escherichia coli 0157:H7 = system: Escherichia coli 0157:H7
[11] = system: Propionibacterium acnes ATCC 6919
[12] = system: Candida albicans ATCC 10231
[13] = Candida auris CDC 811903, Table 2

With CCOC(=O)c1ccc(O)c(O)c1 [Ethyl ester of protocatechuic acid, 3,4-Dihydroxybenzoic acid ethyl ester] the “Average (mm)” value [1] was 28 mm, the “RESULTS (mm) Plate 1” value [1] was 28 mm and the “RESULTS (mm) Plate 2” value [1] was 28 mm. The “Average (mm)” value (MRSE ATCC 51625) was 23 mm, the “RESULTS (mm) Plate 1” value (MRSE ATCC 51625) was 23 mm and the “RESULTS (mm) Plate 2” value (MRSE ATCC 51625) was 22 mm. The “Average (mm)” value [2] was 27 mm, the “RESULTS (mm) Plate 1” value [2] was 25 mm and the “RESULTS (mm) Plate 2” value [2] was 28 mm. For the same compound, the “Average (mm)” value [3] was 27 mm, the “RESULTS (mm) Plate 1” value [3] was 28 mm and the “RESULTS (mm) Plate 2” value [3] was 26 mm. The “Average (mm)” value [4] was 27 mm, the “RESULTS (mm) Plate 1” value [4] was 26 mm and the “RESULTS (mm) Plate 2” value [4] was 28 mm. The “Average (mm)” value [5] was 11 mm, the “RESULTS (mm) Plate 1” value [5] was 11 mm and the “RESULTS (mm) Plate 2” value [5] was 11 mm. For the same compound, the “Average (mm)” value [6] was 26.5 mm, the “RESULTS (mm) Plate 1” value [6] was 28 mm and the “RESULTS (mm) Plate 2” value [6] was 25 mm. For the same compound, the “Average (mm)” value (Candida auris CDC B11903; [13]) was 29.5 mm, the “RESULTS (mm) Plate 2” value (Candida auris CDC B11903; [13]) was 28 mm and the “RESULTS (mm) Plate I” value (Candida auris CDC B11903; [13]) was 31 mm. The “topical disinfection for Candida auris” value (Candida auris CDC B11903; conclusion in words from the in vitro test results) was “excellent agent for topical disinfection”, the “Average (mm)” value [7] was 23 mm and the “RESULTS (mm) Plate 1” value [7] was 24 mm. The “RESULTS (mm) Plate 2” value [7] was 22 mm, the “Average (mm)” value [8] was 52 mm and the “RESULTS (mm) Plate 1” value [8] was 50 mm. For the same compound, the “RESULTS (mm) Plate 2” value [8] was 54 mm, the “Average (mm)” value [9] was 35 mm and the “RESULTS (mm) Plate 1” value [9] was 35 mm. The “RESULTS (mm) Plate 2” value [9] was 35 mm, the “Average (mm)” value [10] was 23 mm and the “RESULTS (mm) Plate 1” value [10] was 22 mm. The “RESULTS (mm) Plate 2” value [10] was 24 mm, the “Average (mm)” value (Escherichia coli 0157:H7) was 27 mm and the “RESULTS (mm) Plate 1” value (Escherichia coli 0157:H7) was 26 mm. For the same compound, the “RESULTS (mm) Plate 2” value (Escherichia coli 0157:H7) was 28 mm, the “Average (mm)” value [11] was 20 mm and the “RESULTS (mm) Plate 1” value [11] was 22 mm. For the same compound, the “RESULTS (mm) Plate 2” value [11] was 18 mm, the “Average (mm)” value [12] was 29.5 mm and the “RESULTS (mm) Plate 1” value [12] was 31 mm. The “RESULTS (mm) Plate 2” value [12] was 28 mm.
O=C(O)c1ccc(O)c(O)c1 [Protocatechuic acid, reference compound] was tested, and the “Average (mm)” value [1] was 14 mm, the “RESULTS (mm) Plate 1” value [1] was 15 mm and the “RESULTS (mm) Plate 2” value [1] was 13 mm. The “Average (mm)” value (MRSE ATCC 51625) was 18 mm, the “RESULTS (mm) Plate 1” value (MRSE ATCC 51625) was 15 mm and the “RESULTS (mm) Plate 2” value (MRSE ATCC 51625) was 20 mm. The “Average (mm)” value [2] was 13 mm, the “RESULTS (mm) Plate 1” value [2] was 14 mm and the “RESULTS (mm) Plate 2” value [2] was 12 mm. The “Average (mm)” value [3] was 14.5 mm, the “RESULTS (mm) Plate 1” value [3] was 16 mm and the “RESULTS (mm) Plate 2” value [3] was 13 mm. The “Average (mm)” value [4] was 18 mm, the “RESULTS (mm) Plate 1” value [4] was 18 mm and the “RESULTS (mm) Plate 2” value [4] was 18 mm. For the same compound, the “Average (mm)” value [5] was 13 mm, the “RESULTS (mm) Plate 1” value [5] was 13 mm and the “RESULTS (mm) Plate 2” value [5] was 13 mm. The “Average (mm)” value [6] was 21 mm, the “RESULTS (mm) Plate 1” value [6] was 21 mm and the “RESULTS (mm) Plate 2” value [6] was 21 mm. For the same compound, the “resistance of Candida auris to the chemical” value (Candida auris CDC B11903; conclusion in words) was “very resistant”, the “Average (mm)” value [7] was 21 mm and the “RESULTS (mm) Plate 1” value [7] was 18 mm. For the same compound, the “RESULTS (mm) Plate 2” value [7] was 24 mm, the “Average (mm)” value [8] was 52 mm and the “RESULTS (mm) Plate 1” value [8] was 54 mm. The “RESULTS (mm) Plate 2” value [8] was 50 mm, the “Average (mm)” value [9] was 27 mm and the “RESULTS (mm) Plate 1” value [9] was 26 mm. For the same compound, the “RESULTS (mm) Plate 2” value [9] was 28 mm, the “Average (mm)” value [10] was 14 mm and the “RESULTS (mm) Plate 1” value [10] was 14 mm. The “RESULTS (mm) Plate 2” value [10] was 14 mm, the “Average (mm)” value (Escherichia coli 0157:H7) was 15.5 mm and the “RESULTS (mm) Plate 1” value (Escherichia coli 0157:H7) was 17 mm. For the same compound, the “RESULTS (mm) Plate 2” value (Escherichia coli 0157:H7) was 14 mm, the “Average (mm)” value [11] was 21 mm and the “RESULTS (mm) Plate 1” value [11] was 23 mm. For the same compound, the “RESULTS (mm) Plate 2” value [11] was 19 mm, the “Average (mm)” value [12] was 18 mm and the “RESULTS (mm) Plate 1” value [12] was 21 mm. For the same compound, the “RESULTS (mm) Plate 2” value [12] was 15 mm.
